Like-named read-outs stand apart in the source and are kept apart here. Oligonucleotides are written 5' to 3', each unit as a sugar letter and its base; * is a phosphorothioate linkage, no mark a phosphodiester; rarer units and linkages stand in square brackets, end groups in braces. Plain capitals give the bases only. [PEG] = polyethylene glycol spacer within the chain; [invdT] = inverted (3'-3') thymidine; d = 2'-deoxy (DNA); m = 2'-O-methyl

Experimental findings from patent US7998940B2, “Aptamers to von Willebrand factor and their use as thrombotic disease therapeutics” (Archemix Corp., priority 2004, dated 2011) are described below.

The test system of this data set is full length human vWF (SEQ ID NO 7). The experiment in a line: dot blot KD determination and extent of binding, full length human vWF.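 For all read-outs here: dot blot binding of aptamers to full length human vWF across a protein titration, incubated 30 minutes at room temperature in 1x DPBS with BSA.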 Particulars: for % binding @ 100 nM vWF: extent of aptamer binding at 100 nM full length human vWF; for Kd: full length human vWF, read-out: KD.
Setting [1] is: Phase 1 modification, dot blot, 8 point protein titration.
Setting [2] is: Phase 3 modification, dot blot, 8 point protein titration.

Method: Based on this initial screen, KDs were determined for 3 of the vWF dependent binding sequences using the dot blot assay. […] A 12 point protein titration was used in the dot blot assay (300 nM, 100 nM, 30 nM, 10 nM, 3 nM, 1 nM, 300 pM, 100 pM, 30 pM, 10 pM, 3 pM, 0 pM) in 1×DPBS plus 0.1 mg/mL BSA at room temperature for 30 minutes.
An 8 point protein titration was used in the dot blot binding assay (100n M, 30 nM, 10 nM, 3 nM, 1 nM, 300 pM, 100 pM, 0 pM)) in 1× Dulbecco's PBS containing 0.1 BSA (final volume of 50 uL) for 30 minutes at room temperature.

With “ARC1235: ARC1172 with composite 2'-O methyl replacements in the stem regions (mGmGdCmGdTmGdCdAdGdTdGdCdCdTdTdCdGdGdCdCdGdTdGdCdGdGdTdGdCdCdTdCdCdGdTdCmAdCmGdCdC[invdT]; aptamer)”, the “% binding @ 100 nM vWF” value (Phase 1 modification) is 23%. For the same substance, the Kd under setting [1] is 13 nM.
For the substance “ARC1233: ARC1172 with one residue replaced by 2'-O methyl residue (dGdGdCdGdTdGdCdAdGdTdGdCdCdTdTdCdGdGdCdCdGdTdGdCdGdGdTdGdCdCdTdCdCdGdTdCdAdCdGmCdC[invdT]; aptamer)”, the “% binding @ 100 nM vWF” value (Phase 1 modification) is 39%. Also, under setting [1], the Kd is 2 nM.
For the substance “ARC1372: ARC1361 with single phosphorothioate phosphate backbone modification (mGmCmGmUdGdCdAmGmUmGmCmCmUmUmCmGmGmCdCmGdTmGdCdG*dGdTmGmCdCmUdCdCmGmUdCmAmCmGmC[invdT]; aptamer)”, where the note is “Phase 3 modification”, the “% binding @ 100 nM vWF” value is given as 35.2%. In addition, the Kd under setting [2] turned out to be 23.5 nM.
As for “ARC1237: ARC1172 with composite 2'-O methyl replacements in the stem regions (mGmGmCmGmUmGdCdAdGdTdGdCdCdTdTdCdGdGdCdCdGdTdGdCdGdGdTdGdCdCdTdCdCdGdTmCmAmCmGmCmC[invdT]; aptamer)”, the “% binding @ 100 nM vWF” value (Phase 1 modification) was 9%. The dissociation constant (Kd) under setting [1] worked out at 41 nM.
Regarding “ARC1377: ARC1361 with single phosphorothioate phosphate backbone modification (mGmCmGmUdGdCdAmGmUmGmCmCmUmUmCmGmGmCdCmGdTmGdCdGdGdTmGmCdCmU*dCdCmGmUdCmAmCmGmC[invdT]; aptamer)”, the “% binding @ 100 nM vWF” value (Phase 3 modification) worked out at 30.9%. For the same substance, under setting [2], the Kd was 7.4 nM.
In the same order, the values of “ARC1367: ARC1361 with single phosphorothioate phosphate backbone modification (mGmCmGmUdGdCdAmGmUmGmCmCmUmUmCmGmGmCdC*mGdTmGdCdGdGdTmGmCdCmUdCdCmGmUdCmAmCmGmC[invdT]; aptamer)” are 30.4% and 13.9 nM.
For “ARC1196: ARC1172 with one residue replaced by 2'-O methyl residue (DNA dGdGmCdGdTdGdCdAdGdTdGdCdCdTdTdCdGdGdCdCdGdTdGdCdGdGdTdGdCdCdTdCdCdGdTdCdAdCdGdCdC[invdT]; aptamer)”, where the note is “Phase 1 modification”, the “% binding @ 100 nM vWF” value turned out to be 46%. The Kd under setting [1] turned out to be 2 nM.
Take “ARC1380: ARC1361 with single phosphorothioate phosphate backbone modification (mGmCmGmUdGdCdAmGmUmGmCmCmUmUmCmGmGmCdCmGdTmGdCdGdGdTmGmCdCmUdCdCmGmU*dCmAmCmGmC[invdT])”: for the setting “Phase 3 modification”, the “% binding @ 100 nM vWF” value is listed as 32.5%. For the same substance, the Kd under setting [2] worked out at 12 nM.
Consider “mGmGmCmGmUdGdCdAmGmUmGmCmCmUmUmCmGmGmCdCmGTmGdCdGdGTmGmCdCmUdCdCmGmUmCmAmCmGmCmC-3T (mGmGmCmGmUdGdCdAmGmUmGmCmCmUmUmCmGmGmCdCmGdTmGdCdGdGdTmGmCdCmUdCdCmGmUmCmAmCmGmCmC[invdT]; aptamer) [ARC1342]”, for which, where the note is “Phase 2 modification”, the “% binding @ 100 nM vWF” value came out at 33% and the Kd came to 15.6 nM.
With “ARC1373: ARC1361 with single phosphorothioate phosphate backbone modification (mGmCmGmUdGdCdAmGmUmGmCmCmUmUmCmGmGmCdCmGdTmGdCdGdG*dTmGmCdCmUdCdCmGmUdCmAmCmGmC[invdT]; aptamer)”, the “% binding @ 100 nM vWF” value (Phase 3 modification) is 33.0%. Besides, under setting [2], the Kd stood at 7.1 nM.
With “ARC1197: ARC1172 with one residue replaced by 2'-O methyl residue (DNA dGdGdCmGdTdGdCdAdGdTdGdCdCdTdTdCdGdGdCdCdGdTdGdCdGdGdTdGdCdCdTdCdCdGdTdCdAdCdGdCdC[invdT]; aptamer)”, where the note is “Phase 1 modification”, the “% binding @ 100 nM vWF” value came out at 46%. Moreover, the Kd under setting [1] came out at 2 nM.
For “ARC1201: ARC1172 with one residue replaced by 2'-O methyl residue (DNA dGdGdCdGdTdGdCmAdGdTdGdCdCdTdTdCdGdGdCdCdGdTdGdCdGdGdTdGdCdCdTdCdCdGdTdCdAdCdGdCdC[invdT]; aptamer)” the same measures were 6% and 0.9 nM.
As to “mGmCmGmUdGdCdAmGmUmGmCmCmUmUmUmGmGmCdCmG-s-TmGdCdGdGTmGmCdCmUdCdCmGmUmCmAmCmGmC-3T (mGmCmGmUdGdCdAmGmUmGmCmCmUmUmUmGmGmCdCmG*dTmGdCdGdGdTmGmCdCmUdCdCmGmUmCmAmCmGmC[invdT]) [ARC1526]”, under “Phase 4 and 5 modification”, the “% binding @ 100 nM vWF” value is 29.0% and the Kd is 4.7 nM.
In the same order, the values of “mCmGmUdGdCdAmGmUmGmCmCPEGmGmGmCdCmG-s-TmGdCdGdGTmGmCdCmUdCdCmGmUdCmAmCmG-3T (mCmGmUdGdCdAmGmUmGmCmC[PEG]mGmGmCdCmG*dTmGdCdGdGdTmGmCdCmUdCdCmGmUdCmAmCmG[invdT]; aptamer) [ARC1531]” are 20.0% and 1.5 nM.
Turning to “ARC1220: ARC1172 with one residue replaced by 2'-O methyl residue (dGdGdCdGdTdGdCdAdGdTdGdCdCdTdTdCdGdGdCdCdGdTdGdCdGdGmUdGdCdCdTdCdCdGdTdCdAdCdGdCdC[invdT]; aptamer)”, the “% binding @ 100 nM vWF” value (Phase 1 modification) is recorded as 17%. Moreover, the Kd under setting [1] was determined as 11 nM.
Take “ARC1364: ARC1361 with single phosphorothioate phosphate backbone modification (mGmCmGmUdGdC*dAmGmUmGmCmCmUmUmCmGmGmCdCmGdTmGdCdGdGdTmGmCdCmUdCdCmGmUdCmAmCmGmC[invdT]; aptamer)”: the “% binding @ 100 nM vWF” value (Phase 3 modification) was found to be 36.9%. Moreover, the dissociation constant (Kd) under setting [2] was 8.2 nM.
“mGmGmCmGmUdG-s-dCdAmGmUmGmCmCmUmUmCmGmGmC-s-dCmGTmGdCdG-s-dGTmGmCdCmUdC-s-dCmGmUmCmAmCmGmCmC-3T (mGmGmCmGmUdG*dCdAmGmUmGmCmCmUmUmCmGmGmC*dCmGdTmGdCdG*dGdTmGmCdCmUdC*dCmGmUmCmAmCmGmCmC[invdT]) [ARC1343]”: where the note is “Phase 2 modification”, the “% binding @ 100 nM vWF” value was 21% and the Kd was determined as 23.9 nM.
With “dGdGdCdGTdGdCdAdGTdGdCdCTTdCdGdGdCdCdG-s-TdGdCdGdGTdGdCdCTdCdCdGTdCdAdCdGdCdC-3T (dGdGdCdGdTdGdCdAdGdTdGdCdCdTdTdCdGdGdCdCdG*dTdGdCdGdGdTdGdCdCdTdCdCdGdTdCdAdCdGdCdC[invdT]) [ARC1759]”, for the setting “Phase 4 and 5 modification”, the “% binding @ 100 nM vWF” value is on record as 46% and the Kd was determined as 0.7 nM. Also, the “binding to human vWF” value (in words, dot blot) is “measurable improvement in affinity relative to ARC1172”.
Turning to “ARC1231: ARC1172 with one residue replaced by 2'-O methyl residue (dGdGdCdGdTdGdCdAdGdTdGdCdCdTdTdCdGdGdCdCdGdTdGdCdGdGdTdGdCdCdTdCdCdGdTdCdAmCdGdCdC[invdT]; aptamer)”, the “% binding @ 100 nM vWF” value (Phase 1 modification) is 50%. Also, the Kd under setting [1] was determined as 1 nM.
For “ARC1221: ARC1172 with one residue replaced by 2'-O methyl residue (dGdGdCdGdTdGdCdAdGdTdGdCdCdTdTdCdGdGdCdCdGdTdGdCdGdGdTmGdCdCdTdCdCdGdTdCdAdCdGdCdC[invdT]; aptamer)” the same measures were 43% and 1 nM.
In the same order, the values of “ARC1194: ARC1172 with one residue replaced by 2'-O methyl residue (DNA mGdGdCdGdTdGdCdAdGdTdGdCdCdTdTdCdGdGdCdCdGdTdGdCdGdGdTdGdCdCdTdCdCdGdTdCdAdCdGdCdC[invdT]; aptamer)” are 46% and 3 nM.
